This is an account of results in patent publication US10472334B2, “Small molecules for inhibiting male fertility” (The University of North Carolina at Chapel Hill, priority 2014, dated 2019).

The nature of data set [1]: In vitro metabolism, human liver microsomes. The format is in vitro ADME. Conditions: read-out: Human liver microsomes metabolism T½. How it is done: In vitro metabolism was evaluated using the methods described in Obach, R. S. et al. (1997), J. Pharmacol. Exp. Ther., 283: 46-58.
Intrinsic Clearance (microsomes, S9, cryopreserved hepatocytes, recombinant CYP, recombinant UGT) Metabolic stability, expressed as percent of the parent compound remaining, was calculated by comparing the peak area of the compound at the time point relative to that at time-O. The half-life (T½) was estimated from the slope of the initial linear range of the logarithmic curve of compound remaining (%) vs. time, assuming the first-order kinetics. The apparent intrinsic clearance (CLint, in μL/min/pmol, μL/min/mg or μL/min/Mcell) was calculated according to the following formula: […]

The target of data set [2] is T1, recombinant human EPPIN (Homo sapiens, UniProt O95925).
T1 construct: His-tagged (FLAG tag also stated); E. coli M15[pREP-4], Ni-NTA purified; AlphaScreen with anti-EPPIN S21C antibody
The experiment in a line: AlphaScreen epitope assay: inhibition of anti-EPPIN (S21C, C-terminal domain) antibody binding to histidine-tagged recombinant human EPPIN. The conditions noted are these: Figure 2; TZ4_121 concentration-response, percent of control value vs. log concentration; His-tagged rhEPPIN (E. coli, lacks part of N-terminal secretory signal) on NTA-donor beads, anti-EPPIN S21C on protein A-acceptor beads; spread printed +/- 10.4. The source says:
Two assays for high throughput screening (HTS) of compounds have been established and validated. In one embodiment, these assays are based on an adaptation of the AlphaScreen™ assay developed by PerkinElmer (Waltham, Mass.). In the AlphaScreen™ (amplified luminescent proximity homogeneous assay) assay donor and acceptor beads (˜200 nm) are employed to hold interacting protein molecules. When the interacting protein molecules bind (for example EPPIN {on the donor bead} and anti-EPPIN {on the acceptor bead}), singlet state oxygen molecules diffuse from the donor bead to the acceptor bead (˜4 μsec) and fluorophores subsequently emit light at 520-620 nm. In the primary compound screen, histidine-tagged recombinant human EPPIN is attached to NTA-donor beads and anti-EPPIN (S21C; against the EPPIN C-terminal domain) is attached to protein A-acceptor beads. This epitope specific assay gives strong and stable binding between EPPIN and the antibody. […]

T1 sequence (O95925 22-133): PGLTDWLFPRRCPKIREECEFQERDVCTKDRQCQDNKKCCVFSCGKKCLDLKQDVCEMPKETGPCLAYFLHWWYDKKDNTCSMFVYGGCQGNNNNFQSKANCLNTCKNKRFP

On to `CCOC(=O)CSc1nc(NNC(=O)OC)nc(Nc2ccc(NC(=O)OC)c(O)c2)n1` [TZ4_121, [4-(3-Hydroxy-4-methoxycarbonylamino-phenylamino)-6-(N′methoxycarbonyl-hydrazino)-1,3,5-triazin-2-ylsulfanyl]-acetic acid ethyl ester], for which the half-life in data set [1] amounted to 41 min. The IC50 (in general, the concentration needed to halve the response being measured) in data set [2] was determined as 38.2 µM.
